Results reported in ChEMBL document CHEMBL2069259, “Preclinical strategy to reduce clinical hepatotoxicity using in vitro bioactivation data for >200 compounds” (Chem Res Toxicol, 2012).

Key:
Liver microsomes [1] = conditions: human, 1.5 h, 100 µM
CYP2C19 = CYP2C19 (Homo sapiens, UniProt P33261); assay: Inhibition of human CYP2C19 assessed as ratio of IC50 in absence of NADPH to IC50 for presence of NADPH using 3-butyryl-7-methoxycoumarin as substrate after 30 mins
Liver microsomes [2] = assay: Metabolic stability in human liver microsomes assessed as high signal/noise ratio (S/N of >100) by measuring GSH adduct formation at 100 uM after 90 mins by HPLC-MS analysis; conditions: 1.5 h
Liver microsomes [3] = assay: Metabolic stability in human liver microsomes assessed as GSH adduct formation at 100 uM after 90 mins by HPLC-MS analysis; conditions: 1.5 h
Liver microsomes [4] = assay: Metabolic stability in human liver microsomes assessed as low signal/noise ratio (S/N of 1 to 10) by measuring GSH adduct formation at 100 uM after 90 mins by HPLC-MS analysis; format: ADME, Microsome; conditions: 1.5 h
CYP3A4 [5] = molecular target: T1, CYP3A4 (Homo sapiens, UniProt P08684); assay: Inhibition of human CYP3A4 assessed as ratio of IC50 in absence of NADPH to IC50 for presence of NADPH using diethoxyfluorescein as substrate after 30 mins
T1 sequence (P08684 whole entry): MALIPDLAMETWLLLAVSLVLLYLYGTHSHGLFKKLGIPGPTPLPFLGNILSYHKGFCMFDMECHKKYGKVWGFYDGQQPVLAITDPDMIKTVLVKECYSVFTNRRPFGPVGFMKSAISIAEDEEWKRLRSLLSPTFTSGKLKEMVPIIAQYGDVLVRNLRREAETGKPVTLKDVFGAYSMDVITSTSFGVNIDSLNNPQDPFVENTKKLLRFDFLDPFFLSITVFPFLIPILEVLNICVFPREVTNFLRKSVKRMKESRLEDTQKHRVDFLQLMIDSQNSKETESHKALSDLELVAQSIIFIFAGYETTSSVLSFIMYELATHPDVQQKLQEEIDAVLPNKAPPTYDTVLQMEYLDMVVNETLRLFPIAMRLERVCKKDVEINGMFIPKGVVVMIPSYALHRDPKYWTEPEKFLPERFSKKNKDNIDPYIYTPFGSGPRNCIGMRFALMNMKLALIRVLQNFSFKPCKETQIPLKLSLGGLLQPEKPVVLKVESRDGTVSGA

CYP3A4 [6] = molecular target: T1, CYP3A4; assay: Inhibition of human CYP3A4 assessed as ratio of IC50 in absence of NADPH to IC50 for presence of NADPH using 7-benzyloxyquinoline as substrate after 30 mins
[7] = probe 3-butyryl-7-methoxycoumarin

Chain of CYP2C19 (P33261 whole entry): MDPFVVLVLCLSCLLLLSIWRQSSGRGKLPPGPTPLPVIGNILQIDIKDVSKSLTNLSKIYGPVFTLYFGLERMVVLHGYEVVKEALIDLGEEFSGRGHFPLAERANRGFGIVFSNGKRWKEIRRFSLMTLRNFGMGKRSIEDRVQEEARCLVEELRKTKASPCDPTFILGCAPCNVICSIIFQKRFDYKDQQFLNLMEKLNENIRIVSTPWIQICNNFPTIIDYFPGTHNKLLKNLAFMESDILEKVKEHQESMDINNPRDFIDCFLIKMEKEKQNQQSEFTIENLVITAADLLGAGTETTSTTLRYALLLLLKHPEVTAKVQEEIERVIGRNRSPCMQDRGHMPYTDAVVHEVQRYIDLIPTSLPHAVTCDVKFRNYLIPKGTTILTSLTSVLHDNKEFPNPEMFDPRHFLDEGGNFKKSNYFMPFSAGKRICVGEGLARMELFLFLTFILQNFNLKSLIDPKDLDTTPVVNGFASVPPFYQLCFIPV

CC1=C(CC(=O)O)c2cc(F)ccc2/C1=C\c1ccc([S+](C)[O-])cc1 (stereo not given)
Stability (Liver microsomes [1]): Unstable

Nc1ccc(C(=O)O)c(O)c1 [AMINOSALICYLIC ACID]
Stability (Liver microsomes [1]): Unstable

CN(C)CCC=C1c2ccccc2CCc2ccccc21 [AMITRIPTYLINE]
IC50 shift at 0.5 h (CYP2C19; [7]): < 2
Stability (Liver microsomes [2]): Unstable

C[C@@H]1[C@H](O)[C@@H](C)/C=C/C=C/C=C/C=C/C=C/C=C/C=C/[C@H](O[C@@H]2O[C@H](C)[C@@H](O)[C@H](N)[C@@H]2O)C[C@@H]2O[C@](O)(C[C@@H](O)C[C@@H](O)[C@H](O)CC[C@@H](O)C[C@@H](O)CC(=O)O[C@H]1C)C[C@H](O)[C@H]2C(=O)O [AMPHOTERICIN B]
IC50 shift at 0.5 h (CYP2C19; [7]): < 2
Stability (Liver microsomes [3]): Stable

CC(=O)Oc1ccccc1C(=O)O [ASPIRIN]
IC50 shift at 0.5 h (CYP2C19): < 2
Stability (Liver microsomes [3]): Stable

Cc1cc(C(C)(C)C)c(O)c(C(C)(C)C)c1 [BUTYLATED HYDROXYTOLUENE]
Stability (Liver microsomes [4]): Unstable

O=NN(CCCl)C(=O)NCCCl [CARMUSTINE]
Stability (Liver microsomes [1]): Unstable

O=C1CCc2cc(OCCCCc3nnnn3C3CCCCC3)ccc2N1 [CILOSTAZOL]
IC50 shift at 0.5 h (CYP3A4 [5]): 2
Stability (Liver microsomes [3]): Stable
IC50 shift at 0.5 h (CYP3A4 [6]): 2

CC[C@H]1OC(=O)[C@H](C)[C@@H](O[C@H]2C[C@@](C)(OC)[C@@H](O)[C@H](C)O2)[C@H](C)[C@@H](O[C@@H]2O[C@H](C)C[C@H](N(C)C)[C@H]2O)[C@](C)(OC)C[C@@H](C)C(=O)[C@H](C)[C@@H](O)[C@]1(C)O [CLARITHROMYCIN]
IC50 shift at 0.5 h (CYP3A4 [5]; probe diethoxyfluorescein): > 5
Stability (Liver microsomes [3]): Stable
IC50 shift at 0.5 h (CYP3A4 [6]; probe 7-benzyloxyquinoline): > 5

O=C(O)[C@H]1/C(=C/CO)O[C@@H]2CC(=O)N21 [CLAVULANIC ACID]
Stability (Liver microsomes [2]): Unstable

CN1CCC[C@@H]1CCO[C@](C)(c1ccccc1)c1ccc(Cl)cc1 [CLEMASTINE]
IC50 shift at 0.5 h (CYP3A4 [5]): 2
IC50 shift at 0.5 h (CYP2C19): < 2
Stability (Liver microsomes [3]): Stable
IC50 shift at 0.5 h (CYP3A4 [6]): > 5

COc1cc2c(c(OC)c1OC)-c1ccc(OC)c(=O)cc1[C@@H](NC(C)=O)CC2 [COLCHICINE]
Stability (Liver microsomes [4]): Unstable

O=c1ccc2ccccc2o1 [COUMARIN]
Stability (Liver microsomes [1]): Unstable

O=P1(N(CCCl)CCCl)NCCCO1 (stereo not given) [CYCLOPHOSPHAMIDE ANHYDROUS]
Stability (Liver microsomes [1]): Unstable

CC(=O)[C@@]1(O)CC[C@H]2[C@@H]3C=C(Cl)C4=CC(=O)[C@@H]5C[C@@H]5[C@]4(C)[C@H]3CC[C@@]21C [CYPROTERONE]
Stability (Liver microsomes [2]): Unstable

CN(C)/N=N/c1[nH]cnc1C(N)=O [DACARBAZINE]
Stability (Liver microsomes [2]): Unstable

C#C[C@]1(O)CC[C@H]2[C@@H]3CCC4=Cc5oncc5C[C@]4(C)[C@H]3CC[C@@]21C [DANAZOL]
Stability (Liver microsomes [1]): Unstable
IC50 shift at 0.5 h (CYP2C19): < 2

Nc1ccc(S(=O)(=O)c2ccc(N)cc2)cc1 [DAPSONE]
Stability (Liver microsomes [4]): Unstable

O=C(O)Cc1ccccc1Nc1c(Cl)cccc1Cl [DICLOFENAC]
Stability (Liver microsomes [1]): Unstable

CN(CCOc1ccc(NS(C)(=O)=O)cc1)CCc1ccc(NS(C)(=O)=O)cc1 [DOFETILIDE]
Stability (Liver microsomes [1]): Unstable

COc1cccc2c1C(=O)c1c(O)c3c(c(O)c1C2=O)C[C@@](O)(C(=O)CO)C[C@@H]3O[C@H]1C[C@H](N)[C@H](O)[C@H](C)O1 [DOXORUBICIN]
IC50 shift at 0.5 h (CYP3A4 [5]): 2
Stability (Liver microsomes [1]): Unstable
IC50 shift at 0.5 h (CYP3A4 [6]): > 5

C[C@]12CC[C@@H]3c4ccc(O)cc4CC[C@H]3[C@@H]1CC[C@@H]2O [ESTRADIOL]
IC50 shift at 0.5 h (CYP3A4 [5]; probe diethoxyfluorescein): < 2
Stability (Liver microsomes [2]): Unstable

C[C@]12CC[C@@H]3c4ccc(O)cc4CC[C@H]3[C@@H]1C[C@@H](O)[C@@H]2O [ESTRIOL]
Stability (Liver microsomes [1]): Unstable

C#C[C@]1(O)CC[C@H]2[C@@H]3CCc4cc(O)ccc4[C@H]3CC[C@@]21C [ETHINYL ESTRADIOL]
IC50 shift at 0.5 h (CYP3A4 [5]; probe diethoxyfluorescein): 2
Stability (Liver microsomes [2]): Unstable
IC50 shift at 0.5 h (CYP3A4 [6]; probe 7-benzyloxyquinoline): 2

COc1cc([C@@H]2c3cc4c(cc3[C@@H](O[C@@H]3O[C@@H]5CO[C@@H](C)O[C@H]5[C@H](O)[C@H]3O)[C@H]3COC(=O)[C@H]23)OCO4)cc(OC)c1O [ETOPOSIDE]
Stability (Liver microsomes [2]): Unstable

CC1(C)O[C@@H]2C[C@H]3[C@@H]4C[C@H](F)C5=CC(=O)C=C[C@]5(C)[C@H]4[C@@H](O)C[C@]3(C)[C@]2(C(=O)CO)O1 [FLUNISOLIDE]
Stability (Liver microsomes [2]): Unstable

NNc1nncc2ccccc12 [HYDRALAZINE]
Stability (Liver microsomes [1]): Unstable

CC(C)NNC(=O)c1ccncc1 [IPRONIAZID]
IC50 shift at 0.5 h (CYP3A4 [5]; probe diethoxyfluorescein): > 5
Stability (Liver microsomes [3]): Stable

CC[C@H](C)C(=O)O[C@H]1C[C@@H](C)C=C2C=C[C@H](C)[C@H](CC[C@@H]3C[C@@H](O)CC(=O)O3)[C@H]21 [LOVASTATIN]
Stability (Liver microsomes [1]): Unstable

CNC1(C)C2CCC(C2)C1(C)C (stereo not given) [MECAMYLAMINE]
IC50 shift at 0.5 h (CYP2C19): < 2
Stability (Liver microsomes [3]): Stable

Cc1cccc(CN2CCN(C(c3ccccc3)c3ccc(Cl)cc3)CC2)c1 (stereo not given) [MECLIZINE]
IC50 shift at 0.5 h (CYP3A4 [5]; probe diethoxyfluorescein): 2
IC50 shift at 0.5 h (CYP2C19; [7]): > 5
Stability (Liver microsomes [3]): Stable
IC50 shift at 0.5 h (CYP3A4 [6]; probe 7-benzyloxyquinoline): > 5

Cc1coc2c1CCC(C)C2 (stereo not given) [MENTHOFURAN]
IC50 shift at 0.5 h (CYP2C19; [7]): < 2

Cc1cccc(C)c1NC(=O)C1CCCCN1C (stereo not given) [MEPIVACAINE]
IC50 shift at 0.5 h (CYP3A4 [5]; probe diethoxyfluorescein): 2
Stability (Liver microsomes [3]): Stable
IC50 shift at 0.5 h (CYP3A4 [6]; probe 7-benzyloxyquinoline): 2

Sc1ncnc2nc[nH]c12 [MERCAPTOPURINE ANHYDROUS]
Stability (Liver microsomes [2]): Unstable

C[C@@H](O)[C@H]1C(=O)N2C(C(=O)O)=C(S[C@@H]3CN[C@H](C(=O)N(C)C)C3)[C@H](C)[C@H]12 [MEROPENEM]
Stability (Liver microsomes [2]): Unstable

C#C[C@]1(O)CC[C@H]2[C@@H]3CCc4cc(OC)ccc4[C@H]3CC[C@@]21C [MESTRANOL]
IC50 shift at 0.5 h (CYP3A4 [5]; probe diethoxyfluorescein): > 5
Stability (Liver microsomes [1]): Unstable
IC50 shift at 0.5 h (CYP3A4 [6]; probe 7-benzyloxyquinoline): > 5

COc1ccccc1OCC(O)COC(N)=O (stereo not given) [METHOCARBAMOL]
IC50 shift at 0.5 h (CYP2C19; [7]): < 2
Stability (Liver microsomes [3]): Stable

CN(C)c1ccc(O)c2c1C[C@H]1C[C@H]3[C@H](N(C)C)C(O)=C(C(N)=O)C(=O)[C@@]3(O)C(O)=C1C2=O [MINOCYCLINE]
Stability (Liver microsomes [1]): Unstable

CO[C@@]12[C@H](COC(N)=O)C3=C(C(=O)C(C)=C(N)C3=O)N1C[C@@H]1N[C@@H]12 [MITOMYCIN]
Stability (Liver microsomes [2]): Unstable

CC(C)[C@H]1CC[C@H](C(=O)N[C@H](Cc2ccccc2)C(=O)O)CC1 [NATEGLINIDE]
Stability (Liver microsomes [1]): Unstable

Cc1ccnc2c1NC(=O)c1cccnc1N2C1CC1 [NEVIRAPINE]
IC50 shift at 0.5 h (CYP3A4 [5]; probe diethoxyfluorescein): 2
Stability (Liver microsomes [3]): Stable

COC(=O)C1=C(C)NC(C)=C(C(=O)OCC(C)C)C1c1ccccc1[N+](=O)[O-] (stereo not given) [NISOLDIPINE]
Stability (Liver microsomes [1]): Unstable

COc1ccc2[nH]c([S+]([O-])Cc3ncc(C)c(OC)c3C)nc2c1 (stereo not given) [OMEPRAZOLE]
IC50 shift at 0.5 h (CYP3A4 [5]): 2
IC50 shift at 0.5 h (CYP2C19): < 2
Stability (Liver microsomes [2]): Unstable

CCCCC1C(=O)N(c2ccccc2)N(c2ccc(O)cc2)C1=O (stereo not given) [OXYPHENBUTAZONE ANHYDROUS]
Stability (Liver microsomes [2]): Unstable

CCCCC1C(=O)N(c2ccccc2)N(c2ccccc2)C1=O [PHENYLBUTAZONE]
Stability (Liver microsomes [2]): Unstable

CCc1ccc(CCOc2ccc(CC3SC(=O)NC3=O)cc2)nc1 (stereo not given) [PIOGLITAZONE]
Stability (Liver microsomes [1]): Unstable

CC(C(=O)O)c1ccc(N2CC=CC2)c(Cl)c1 (stereo not given) [PIRPROFEN]
Stability (Liver microsomes [1]): Unstable

CCCc1cc(=O)[nH]c(=S)[nH]1 [PROPYLTHIOURACIL]
IC50 shift at 0.5 h (CYP3A4 [5]): > 5
Stability (Liver microsomes [2]): Unstable
IC50 shift at 0.5 h (CYP3A4 [6]): > 5

CN(C)C(=O)Oc1ccc[n+](C)c1 [PYRIDOSTIGMINE]
IC50 shift at 0.5 h (CYP2C19): 2
Stability (Liver microsomes [2]): Unstable

C=C[C@H]1C[N@@]2CC[C@H]1C[C@@H]2[C@@H](O)c1ccnc2ccc(OC)cc12 [QUINIDINE]
Stability (Liver microsomes [2]): Unstable

CO[C@H]1/C=C/O[C@@]2(C)Oc3c(C)c(O)c4c(O)c(c(/C=N/N5CCN(C)CC5)c(O)c4c3C2=O)NC(=O)/C(C)=C\C=C\[C@H](C)[C@H](O)[C@@H](C)[C@@H](O)[C@@H](C)[C@H](OC(C)=O)[C@@H]1C [RIFAMPIN]
Stability (Liver microsomes [2]): Unstable

C#CCN(C)[C@H](C)Cc1ccccc1 [SELEGILINE]
Stability (Liver microsomes [2]): Unstable

CCC(C)(C)C(=O)O[C@H]1C[C@@H](C)C=C2C=C[C@H](C)[C@H](CC[C@@H]3C[C@@H](O)CC(=O)O3)[C@H]21 [SIMVASTATIN]
Stability (Liver microsomes [2]): Unstable

Cc1cn([C@H]2C=C[C@@H](CO)O2)c(=O)[nH]c1=O [STAVUDINE]
Stability (Liver microsomes [1]): Unstable

COc1ncnc(NS(=O)(=O)c2ccc(N)cc2)c1OC [SULFADOXINE]
Stability (Liver microsomes [1]): Unstable

O=C(O)c1cc(/N=N/c2ccc(S(=O)(=O)Nc3ccccn3)cc2)ccc1O [SULFASALAZINE]
IC50 shift at 0.5 h (CYP2C19; [7]): < 2
Stability (Liver microsomes [3]): Stable

CN(C)[C@@H]1C(O)=C(C(N)=O)C(=O)[C@@]2(O)C(O)=C3C(=O)c4c(O)cccc4[C@@](C)(O)[C@H]3C[C@@H]12 [TETRACYCLINE]
Stability (Liver microsomes [1]): Unstable

Cc1c(C)c2c(c(C)c1O)CCC(C)(COc1ccc(CC3SC(=O)NC3=O)cc1)O2 (stereo not given) [TROGLITAZONE]
IC50 shift at 0.5 h (CYP3A4 [5]): 2
Stability (Liver microsomes [1]): Unstable

CO[C@H]1C[C@H](O[C@H]2[C@H](C)[C@@H](O[C@@H]3O[C@H](C)C[C@H](N(C)C)[C@H]3OC(C)=O)[C@@H](C)C[C@@]3(CO3)C(=O)[C@H](C)[C@@H](OC(C)=O)[C@@H](C)[C@@H](C)OC(=O)[C@@H]2C)O[C@@H](C)[C@@H]1OC(C)=O [TROLEANDOMYCIN]
Stability (Liver microsomes [2]): Unstable

COc1cc(C(=O)NS(=O)(=O)c2ccccc2C)ccc1Cc1cn(C)c2ccc(NC(=O)OC3CCCC3)cc12 [ZAFIRLUKAST]
IC50 shift at 0.5 h (CYP3A4 [5]; probe diethoxyfluorescein): > 5
IC50 shift at 0.5 h (CYP3A4 [6]; probe 7-benzyloxyquinoline): 2
